The values that follow come from patent US9062051B2, “Compounds and pharmaceutical compositions thereof for the treatment of proliferative disorders” (GALAPAGOS NV, priority 2014, dated 2015).

One series deals with T1, EphB4 (UniProt Ref: Q541P7) (Homo sapiens, UniProt P54760).
T1 construct: purchased Reaction Biology
T1 sequence (P54760 16-987): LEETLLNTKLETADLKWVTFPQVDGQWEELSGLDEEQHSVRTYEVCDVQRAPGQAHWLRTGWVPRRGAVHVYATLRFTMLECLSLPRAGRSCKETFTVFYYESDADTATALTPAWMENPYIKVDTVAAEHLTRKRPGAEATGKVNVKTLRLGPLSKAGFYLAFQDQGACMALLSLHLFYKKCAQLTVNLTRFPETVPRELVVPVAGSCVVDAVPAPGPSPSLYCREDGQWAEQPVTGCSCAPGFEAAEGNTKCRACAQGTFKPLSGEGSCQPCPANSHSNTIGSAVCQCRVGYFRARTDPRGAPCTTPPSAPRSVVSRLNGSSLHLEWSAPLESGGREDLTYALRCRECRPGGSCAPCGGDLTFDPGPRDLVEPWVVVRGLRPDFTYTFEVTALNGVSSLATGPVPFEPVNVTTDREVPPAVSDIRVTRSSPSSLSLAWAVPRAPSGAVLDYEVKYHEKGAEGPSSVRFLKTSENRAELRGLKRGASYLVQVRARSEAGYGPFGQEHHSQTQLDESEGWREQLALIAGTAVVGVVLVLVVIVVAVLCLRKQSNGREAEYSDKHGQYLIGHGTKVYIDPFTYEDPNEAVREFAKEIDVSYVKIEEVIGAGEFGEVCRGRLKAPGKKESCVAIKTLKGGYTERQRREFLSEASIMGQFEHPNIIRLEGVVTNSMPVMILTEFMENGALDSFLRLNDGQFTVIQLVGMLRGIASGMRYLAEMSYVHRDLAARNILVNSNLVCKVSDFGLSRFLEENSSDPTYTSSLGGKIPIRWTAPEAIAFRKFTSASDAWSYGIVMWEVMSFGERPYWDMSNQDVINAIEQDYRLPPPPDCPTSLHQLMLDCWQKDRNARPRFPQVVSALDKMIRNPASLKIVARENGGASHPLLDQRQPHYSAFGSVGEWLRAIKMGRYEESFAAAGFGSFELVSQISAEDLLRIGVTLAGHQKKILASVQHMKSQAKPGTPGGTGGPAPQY
Kind of series: EphB4 assay (Reaction Biology HotSpot radioactive kinase assay). It is filed as biochemical. The conditions noted are these: ATP 10 μM; read-out: EphB4 potency IC50. The protocol:
Inhibition of EphB4 (UniProt Ref: Q541P7) by a test compound is determined by a commercially available Reaction Biology proprietary nanoliter radioactive HotSpot^SM assay (Reaction Biology, One great valley parkway, Suite 2, Malvern Pa., 19355, USA). The principle of the assay consists of the measurement of incorporated ^33P into poly[Glu:Tyr] (4:1) (0.2 mg/mL) when the substrate is phosphorylated by the enzyme using [^33P]-γ-ATP and ATP (10 μM).
To determine the IC50, a serial dilution of compound is tested starting from 10 or 3 μM (highest dilution) with a 1/3 dilution.

Another series has as its target T2, Recombinant EphB2 (Homo sapiens, UniProt P29323).
T2 construct: purchased Carna 08-129
T2 sequence (P29323 19-986 isoform P29323-2 limits assumed): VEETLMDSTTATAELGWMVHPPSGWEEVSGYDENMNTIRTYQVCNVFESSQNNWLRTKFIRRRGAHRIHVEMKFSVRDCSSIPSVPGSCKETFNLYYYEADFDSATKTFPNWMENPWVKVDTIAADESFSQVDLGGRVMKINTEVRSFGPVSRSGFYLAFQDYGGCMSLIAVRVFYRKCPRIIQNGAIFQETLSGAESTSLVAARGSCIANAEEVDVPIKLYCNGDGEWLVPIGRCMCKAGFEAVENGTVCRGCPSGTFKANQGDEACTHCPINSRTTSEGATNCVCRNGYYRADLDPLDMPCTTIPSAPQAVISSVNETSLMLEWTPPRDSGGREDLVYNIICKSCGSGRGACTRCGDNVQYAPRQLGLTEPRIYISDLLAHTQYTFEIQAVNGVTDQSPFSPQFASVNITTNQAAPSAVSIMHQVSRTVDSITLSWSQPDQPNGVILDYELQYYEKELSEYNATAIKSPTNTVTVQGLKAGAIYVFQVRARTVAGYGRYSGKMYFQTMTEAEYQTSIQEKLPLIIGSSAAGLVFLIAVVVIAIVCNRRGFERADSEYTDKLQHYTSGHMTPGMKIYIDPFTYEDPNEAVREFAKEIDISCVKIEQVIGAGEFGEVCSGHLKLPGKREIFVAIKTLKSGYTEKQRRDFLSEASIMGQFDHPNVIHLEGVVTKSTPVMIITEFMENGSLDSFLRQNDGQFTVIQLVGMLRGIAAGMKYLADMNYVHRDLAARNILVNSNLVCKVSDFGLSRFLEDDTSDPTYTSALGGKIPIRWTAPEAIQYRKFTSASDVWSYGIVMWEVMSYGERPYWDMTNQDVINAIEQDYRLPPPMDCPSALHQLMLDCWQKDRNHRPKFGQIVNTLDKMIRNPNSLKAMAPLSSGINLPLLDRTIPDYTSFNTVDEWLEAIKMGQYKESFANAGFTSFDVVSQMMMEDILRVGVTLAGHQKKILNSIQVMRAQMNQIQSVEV
As to the kind of experiment: EphB2 assay (33P incorporation into poly GT, filter plate). The settings on record: read-out: EphB2 potency IC50. It is filed as biochemical. The protocol:
The principle of the assay consists of the measurement of incorporated ^33P into the substrate poly GT when phosphorylated by the enzyme EphB2 using [^33P]-γ-ATP and ATP. Unincorporated ^33P is removed by loading the samples on a filter plate (using a harvester, Perkin Elmer) and 6 subsequent washing steps. ^33P incorporated in polyGT is measured on a Topcount after addition of microscint to the filter plates (Perkin Elmer).
Recombinant EphB2 (Carna Cat#08-129, 0.6 ng per well) was incubated with 0.05 mg/mL Poly(Glu,Tyr)sodium salt (4:1), MW 20 000-50 000 (Sigma catalog number P0275) in kinase reaction buffer (10 mM MOPS pH 7.2, 5 mM DTT, 0.01% Triton-X100, 5 mM MnCl2, 0.5 mM Na3VO4, 5 mM beta-glycerolphosphate), 0.5 μM non-radioactive ATP, 0.25 μCi/25 μl ^33P-gamma-ATP (Perkin Elmer, catalog number NEG602K) final concentrations with or without 5 μL containing test compound or vehicle (DMSO, 1% final concentration), in a total volume of 25 μL, in a polypropylene 96-well plate (Greiner, V-bottom). After 45 min at 30° C., reactions were stopped by adding of 25 μL/well of 150 mM phosphoric acid. The experiment was then conducted as described for EphA7. The ability of a test compound to inhibit the kinase activity was determined using counts per minutes (cpm) measured by the Topcount as:
Cpm (cpd): cpm determined for sample with test compound present
Cpm (control): cpm determined for sample with positive control inhibitor (10 μM staurosporine)
Cpm (vehicle): cpm determined in the presence of vehicle (1% DMSO)
Dose dilution series were prepared for the compounds enabling the testing of dose-response effects in the EphB2 assay and the calculation of the IC50 for each compound. Each compound was routinely tested at concentration of 20 μM followed by a 1/5 serial dilution, 10 points in a final concentration of 1% DMSO. When potency of compound series increased, more dilutions may be prepared and/or the top concentration may be lowered (e.g. 5 μM, 1 μM).

For another series, the target named is T3, EphA2 (UniProt Ref: P29317) (Homo sapiens, UniProt P29317).
T3 construct: purchased Reaction Biology
Kind of series: EphA2 assay (Reaction Biology HotSpot radioactive kinase assay). Type of series: biochemical. The settings on record: ATP 10 μM; read-out: EphA2 potency IC50. On the procedure:
Inhibition of EphA2 (UniProt Ref: P29317) by a test compound is determined by a commercially available Reaction Biology proprietary nanoliter radioactive HotSpot^SM assay (Reaction Biology, One great valley parkway, Suite 2, Malvern Pa., 19355, USA). The principle of the assay consists of the measurement of incorporated ^33P into poly[Glu:Tyr] (4:1) (0.2 mg/mL) when the substrate is phosphorylated by the enzyme using [^33P]-γ-ATP and ATP (10 μM).
To determine the IC50, a serial dilution of compound is tested starting from 10, or 3 μM (highest dilution) with a 1/3 dilution.

The nature of series [1]: Pharmacokinetics in rats (exposure, AUC). The conditions noted are these: male, Sprague Dawley, rat, plasma, po, 5 mg/kg. It is filed as in vivo, male Sprague Dawley rats. On the procedure: This study is performed with 6 naïve male Sprague Dawley rats (180-200 g, 6-8 weeks old). Rats are obtained from Janvier, Le Genest St Isle, France.
A controlled environment is maintained in the room with optimal conditions of approximately 15 air changes per hour, a temperature of 22±2 C, a relative humidity of 30-70% and a 12 hour light/dark cycle
Pelleted diet for rodents (UAR A04C-10) is used and is provided ad libitum. Before p.o. dosing, the animals are deprived of food for at least 12 hours before compound administration and 4 hours after administration. All animals had free access to tap water.
Two days before the dosing day, the implantation of a catheter in the jugular vein is done under gaseous anaesthesia with isoflurane.
Rats are dosed intravenously with test compound via a bolus in the tail vein with a dose level of 1 mg/kg. […]
The i.v. bolus and the oral administration are given a dose volume of 5 mL/kg.
From all animals approximately 200 μL blood samples are collected via the catheter and placed into tubes containing Li-heparin as anticoagulant. Blood samples are collected at the various time points (i.v.: 0.05, 0.25, 0.5, 1, 3, 5, 8 and 24 hours after dosing; p.o.: 0.25, 0.5, 1, 3, 5, 8 and 24 hours after dosing).
Blood is kept on ice. Within 1 hour after sampling, blood is centrifuged at 5,000 rpm for 10 min at 4° C. Immediately after centrifugation, the resulting plasma samples are collected into polypropylene tubes and are kept frozen at −20° C. pending bioanalysis.
Plasma samples are assayed by LC-MS/MS. Plasma proteins are precipitated with an excess of methanol containing the internal standard and the corresponding supernatant is injected on a C18 column. Analytes are eluted out the HPLC system by increasing the percentage of the organic mobile phase. An API4000 mass spectrometer (AB Sciex™) is used for the detection and quantification.
Pharmacokinetic parameters are calculated by non-compartmental analysis using WinNonlin® software (Pharsight, version 5.2).

The next series has as its system MDA-MB-231 cells. Kind of series: Mouse xenograft model of human triple negative breast cancer (MDA-MB-231), tumorous growth inhibition. It is filed as in vivo, Female BALB/c Mice. The settings on record: day 26, 20 mg/kg, ip, 3x/ week. On the procedure: Animals (Female BALB/c Mice, Harlan, 51930, 18-20 g) are provided with filtered tap water and standard chow ad libitum and maintained at 22±2° C. in 55±10% humidity on a 12 h light/dark cycle.
Paclitaxel used as a positive control is formulated by 1/3 dilution of commercial solution (Fresenius kabi, 871WF014/4) in saline.
The test compounds for po administration are formulated in 0.5% methylcellulose (VWR, ref AX021233).
MDA-MB-231 cell line is obtained from the ATCC collection (ref HTB-26). The cells are then cultured in RPMI 1640 medium supplemented with […] (Gibco 15140-148) and 1% (v/v) L-Glutamine 200 mM (Gibco 25030-024) at 37° C. in a 5% CO2 incubator.
5 million MDA-MB-231 cells/mice in 0.1 mL of 50% Matrigel (BD biosciences, LDEV free 256235)+50% D-PBS 1× (Gibco 14190-086) are injected by subcutaneous route on the upper back of 120 mice. Prior to implantation, mice are anesthetized by intra-peritoneal injection with a 0.1 mL/10 g dose of anaesthetic solution (18 mL NaCl, 0.9%+0.5 mL xylazine, +1.5 mL ketamine. […]
Body weight, and tumor growth is recorded twice a week during the course of treatment.
After 26 days the treatment is stopped, in each group half of the mice are euthanized for tissue collection, and the other half is kept for a further 7 days, during which period body weight and tumour sized are measured.
In sacrificed mice, blood and tumours are collected, analysed, and the effect of the test compounds is compared with controls (vehicle and paclitaxel).
The values were obtained using the following calculations
Relative Tumor Volume (RTV):
Tumor Growth Inhibition (TGI) TGI=1−T/C
(A xenograft is tissue or cells of one species grown in another, often human tumour cells in immunodeficient mice.)

In general, IC50 refers to the midpoint of a concentration-inhibition curve. By AUC is commonly meant concentration integrated over time. A lower AUC goes with low exposure.

T3 sequence (P29317 24-976): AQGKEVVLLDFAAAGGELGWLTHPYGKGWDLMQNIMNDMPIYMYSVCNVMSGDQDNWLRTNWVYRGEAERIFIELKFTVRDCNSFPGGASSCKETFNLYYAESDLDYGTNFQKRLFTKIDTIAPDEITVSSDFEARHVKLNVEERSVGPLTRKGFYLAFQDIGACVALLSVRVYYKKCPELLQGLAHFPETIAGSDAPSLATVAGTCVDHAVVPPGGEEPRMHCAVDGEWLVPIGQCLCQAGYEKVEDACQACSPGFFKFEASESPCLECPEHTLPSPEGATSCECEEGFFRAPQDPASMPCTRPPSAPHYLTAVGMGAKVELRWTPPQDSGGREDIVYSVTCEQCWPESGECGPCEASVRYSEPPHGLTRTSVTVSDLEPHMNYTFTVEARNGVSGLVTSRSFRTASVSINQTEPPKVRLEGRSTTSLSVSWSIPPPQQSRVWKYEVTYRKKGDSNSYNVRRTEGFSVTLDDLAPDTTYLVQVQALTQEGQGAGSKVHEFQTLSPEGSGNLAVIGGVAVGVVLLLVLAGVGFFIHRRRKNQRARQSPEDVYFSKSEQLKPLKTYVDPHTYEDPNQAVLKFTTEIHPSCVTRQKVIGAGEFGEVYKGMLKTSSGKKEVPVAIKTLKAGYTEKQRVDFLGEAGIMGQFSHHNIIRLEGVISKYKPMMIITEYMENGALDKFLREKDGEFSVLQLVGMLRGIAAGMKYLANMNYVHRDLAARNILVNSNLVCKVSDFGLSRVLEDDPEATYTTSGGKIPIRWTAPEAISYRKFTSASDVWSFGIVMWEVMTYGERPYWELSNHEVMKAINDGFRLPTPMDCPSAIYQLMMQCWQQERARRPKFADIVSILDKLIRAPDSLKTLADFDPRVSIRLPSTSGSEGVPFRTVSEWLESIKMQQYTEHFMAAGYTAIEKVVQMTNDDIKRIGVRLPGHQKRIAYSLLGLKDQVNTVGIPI

`Cc1cc(C)cc(C(=O)Nc2ccc(C)c(-c3ccc4c(C(O)CN5CCOCC5)n[nH]c4n3)c2)c1` (stereo not drawn) [Compound 7, N-{3-[3-(1-Hydroxy-2-morpholin-4-yl-ethyl)-1H-pyrazolo[3,4-b]pyridin-6-yl]-4-methyl-phenyl}-3,5-dimethyl-benzamide]: the IC50 at EphB4 lay in the range of 0.01 to 25 nM; at Recombinant EphB2, 0.01 to 25 nM; at EphA2, 25 to 50 nM.
On to `CCc1n[nH]c2nc(-c3cc(NC(=O)c4cc(OC)cc(OC)c4)ccc3C)ccc12` [Compound 8, N-[3-(3-Ethyl-1H-pyrazolo[3,4-b]pyridin-6-yl)-4-methyl-phenyl]-3,5-dimethoxy-benzamide], for which the AUC in series [1] was found to be 2000 ng·h/mL.
For the molecule `COc1cc(OC)cc(C(=O)Nc2ccc(C)c(-c3ccc4c(CO)n[nH]c4n3)c2)c1` [Compound 10, N-[3-(3-Hydroxymethyl-1H-pyrazolo[3,4-b]pyridin-6-yl)-4-methyl-phenyl]-3,5-dimethoxy-benzamide], the concentration for half-maximal inhibition (IC50) on EphA2 fell in the range of 0.01 to 25 nM. For the same molecule, in series [1], the AUC stood at 274 ng·h/mL.
For `CC(=O)O[C@H]1C(=O)[C@@]2(C)[C@H]([C@H](OC(=O)c3ccccc3)[C@]3(O)C[C@H](OC(=O)[C@H](O)[C@@H](NC(=O)c4ccccc4)c4ccccc4)C(C)=C1C3(C)C)[C@]1(OC(C)=O)CO[C@@H]1C[C@@H]2O` [Paclitaxel, paclitaxel], in the series on MDA-MB-231 cells, the “RTV (Relative Tumor Volume)” value is 2.06, the “T/C (Tumour Vs Control)” value is reported as 24.31% and the “TGI (Tumor Growth Inhibition)” value stood at 75.69%.
